Results taken from ChEMBL document CHEMBL5346943, “Discovery and Structural Optimization of Novel Quinolone Derivatives as Potent Irreversible Pan-Fibroblast Growth Factor Receptor Inhibitors for Treating Solid Tumors” (J Med Chem, 2023).
In brackets after ≈: the same amount, converted by molar mass. Activity calls are given as the source filed them. The rule behind the calls is not given here.

Experiments:
[1] = test system: MCF7; assay: Antiproliferative activity against human MCF7 cells incubated for 72 hrs by Cell counting kit 8 method; format: functional, cell-based; details: MCF7, 72 h
[2] = Cmax in Sprague-Dawley rat measured at 10 mg/kg, po for 0.083 to 24 hrs by LC-MS/MS analysis; format: ADME, organism-based; design: time 0.083-24 hrs, dose 10 mg/kg, route po; details: in vivo
[3] = MRT (0 to t) in Sprague-Dawley rat measured at 2 mg/kg, iv for 0.083 to 24 hrs by LC-MS/MS analysis; format: ADME, organism-based; details: in vivo, time 0.083-24 hrs
[4] = Microsomal stability in human liver microsomes assessed as intrinsic clearance preincubated for 10 mins followed by NADPH addition measured upto 60 mins by LC-MS/MS analysis; format: ADME, Microsome; details: time < 70 min, read-out: CLH
[5] = Cmax in Sprague-Dawley rat measured at 60 mg/kg, po for 0.083 to 24 hrs by LC-MS/MS analysis; format: ADME, organism-based; design: dose 60 mg/kg, time 0.083-24 hrs, route po; details: in vivo
[6] = test system: Huh-7; assay: Antitumor activity against human Huh-7 cells xenografted in BALB/c nude mouse assessed as reduction in tumor growth once daily at 60 mg/kg, po for 24 days; format: functional, organism-based; details: time 24.0 day
[7] = Cmax in Sprague-Dawley rat measured at 100 mg/kg, po for 0.083 to 24 hrs by LC-MS/MS analysis; format: ADME, organism-based; design: time upper 24 hrs, dose 100 mg/kg, time lower 0.083 hrs, route po; details: in vivo
[8] = test system: Huh-7; assay: Antitumor activity against human Huh-7 cells xenografted in BALB/c nude mouse assessed as reduction in tumor growth once daily administered orally for 24 days; format: functional; details: dose 15-60 mg/kg, route po, time 24.0 day
[9] = Half life in Sprague-Dawley rat measured at 30 mg/kg, po for 0.083 to 24 hrs by LC-MS/MS analysis; format: ADME, organism-based; details: in vivo, time 0.083-24 hrs
[10] = AUC(0 to t) in Sprague-Dawley rat measured at 100 mg/kg, po for 0.083 to 24 hrs by LC-MS/MS analysis; format: ADME, organism-based; design: time upper 24 hrs, dose 100 mg/kg, time lower 0.083 hrs, route po; details: in vivo
[11] = AUC(0 to infinity) in Sprague-Dawley rat measured at 100 mg/kg, po for 0.083 to 24 hrs by LC-MS/MS analysis; format: ADME, organism-based; design: dose 100 mg/kg, time 0.083-24 hrs, route po; details: in vivo
[12] = Solubility of the compound in PBS buffer of pH7.4 at 10 mM measured after 2 hrs by LC-MS/MS analysis; format: physicochemical; details: pH 7.4
[13] = AUC(0 to t) in Sprague-Dawley rat measured at 60 mg/kg, po for 0.083 to 24 hrs by LC-MS/MS analysis; format: ADME, organism-based; design: time upper 24 hrs, time lower 0.083 hrs, dose 60 mg/kg, route po; details: in vivo
[14] = AUC(0 to infinity) in Sprague-Dawley rat measured at 30 mg/kg, po for 0.083 to 24 hrs by LC-MS/MS analysis; format: ADME, organism-based; design: time upper 24 hrs, dose 30 mg/kg, time lower 0.083 hrs, route po; details: in vivo
[15] = Half life in Sprague-Dawley rat measured at 60 mg/kg, po for 0.083 to 24 hrs by LC-MS/MS analysis; format: ADME, organism-based; details: in vivo, time 0.083-24 hrs
[16] = AUC (0 to infinity) in Sprague-Dawley rat measured at 2 mg/kg, iv for 0.083 to 24 hrs by LC-MS/MS analysis; format: ADME, organism-based; design: time lower 0.083 hrs, dose 2 mg/kg, time upper 24 hrs, route iv; details: in vivo
[17] = MRT (0 to t) in Sprague-Dawley rat measured at 10 mg/kg, po for 0.083 to 24 hrs by LC-MS/MS analysis; format: ADME, organism-based; details: in vivo, time 0.083-24 hrs
[18] = biological target: Fibroblast growth factor receptor 4 (Homo sapiens, UniProt P22455); assay: Inhibition of FGFR4 (unknown origin) incubated for 10 mins followed by substrate addition measured after 60 mins by ADP-Glo luminescence assay
Chain of Fibroblast growth factor receptor 4 (P22455 whole entry): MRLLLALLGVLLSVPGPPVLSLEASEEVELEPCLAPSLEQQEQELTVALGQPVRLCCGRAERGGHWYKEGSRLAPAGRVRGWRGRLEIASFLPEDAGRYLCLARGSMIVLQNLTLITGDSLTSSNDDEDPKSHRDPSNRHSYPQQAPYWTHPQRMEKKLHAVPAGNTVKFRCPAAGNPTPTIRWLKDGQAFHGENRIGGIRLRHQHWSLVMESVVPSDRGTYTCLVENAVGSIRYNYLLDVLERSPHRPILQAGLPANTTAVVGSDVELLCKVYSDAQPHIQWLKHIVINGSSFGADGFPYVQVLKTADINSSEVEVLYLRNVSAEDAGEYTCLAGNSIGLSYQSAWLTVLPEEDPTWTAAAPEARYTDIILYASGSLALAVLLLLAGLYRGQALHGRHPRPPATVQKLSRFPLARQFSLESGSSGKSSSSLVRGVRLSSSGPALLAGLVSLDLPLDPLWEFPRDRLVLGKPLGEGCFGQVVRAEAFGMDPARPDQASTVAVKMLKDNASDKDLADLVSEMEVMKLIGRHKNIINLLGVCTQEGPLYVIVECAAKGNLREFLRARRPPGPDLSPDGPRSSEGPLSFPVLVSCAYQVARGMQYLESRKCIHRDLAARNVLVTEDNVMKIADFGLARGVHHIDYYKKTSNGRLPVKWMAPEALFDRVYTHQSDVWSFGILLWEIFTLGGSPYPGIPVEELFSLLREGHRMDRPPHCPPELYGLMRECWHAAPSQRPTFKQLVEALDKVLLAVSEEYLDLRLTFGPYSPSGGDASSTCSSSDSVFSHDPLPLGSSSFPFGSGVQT

C=CC(=O)N1CCC(c2cc3c(Oc4ccc(NC(=O)NC5CC5)c(Cl)c4)ccnc3cc2OC)CC1
IC50 [1]: > 10000 nM | Cmax [2]: 1800 ng/mL | MRT last [3]: 0.18 h | microsomal CLint [4]: 46.7 µL/min/mg | Cmax [5]: 7990 ng/mL | Activity [6]: Active | Cmax [7]: 14600 ng/mL | Activity [8]: Dose-Dependent Effect | half-life [9]: 3.22 h | AUC(0-t) [10]: 28100 ng·h/mL | AUC(0-inf) [11]: 28200 ng·h/mL | solubility at 2 h, 10000 µM [12]: 1.73 µM (≈ 0.901 µg/mL) | AUC(0-t) [13]: 14900 ng·h/mL | AUC(0-inf) [14]: 7950 ng·h/mL | half-life [15]: 2.42 h | AUC(0-inf) [16]: 572 ng·h/mL | MRT last [17]: 1.99 h | IC50 [18]: 1.8 nM
